Tests used:
[1] = system: Cells transduced with BacMam BRAF V600E; experiment: Morphological profiling of BacMam BRAF V600E transduced cells treated with test agents; type: cell-based; details: for side effect score versus disease score (position relative to the funnel, FIG. 10): cells expressing BRAF V600E, varying concentrations of compound, dot plot FIG. 10; for quantified reversal of the disease state (rescue of BRAF V600E overexpression phenotype): morphological profile of treated vs not treated BRAF V600E-transduced cells, 18 compounds tested
Description: (§1) Morphological profiles may be generated by various methods. In an embodiment, morphologically profiling cells may comprise imaging relevant cells or tracking certain parameters or features of the cells. The tracking may be of staining intensities in one or more imaging channels, correlations between imaging channels, textural patterns, size and shape of cellular structures, geometric relationships between intracellular structures, geometric relationships between adjacent cells, or combinations thereof. Cellular features, such as 100 or more cellular features, 500 or more cellular features, or 1000 or more cellular features, may be tracked when morphologically profiling cells. Among various methods of determining these cellular features, they may be obtained by imaging cells with or without fluorescent or non-fluorescent stains or combinations thereof, and numeric features determined by using deep learning embeddings, hand-tuned feature extraction, or combinations thereof. Other than tracking the cellular features, the morphological profiling may include reducing the output of the cellular features using statistical modeling such as principal component analysis.
Pathogenic and non-pathogenic transduced cells were cultured then morphologically profiled. A heatmap of cosine similarities between all pairs of groups (or reagents), origined by method one were generated (FIG. 7). Shown are cells transduced with BacMam vectors having BRAF V600E, KRAS G12C, KRAS G12D, MFN1, MFN1T109A, CTNNB1B, EPAS1, SMO F460L, ALK, EGFR, and some of their nonsense counterparts. […] Cosine similarities between all pairs of feature vectors that were origin by method two in FIG. 7 (FIG. 8).
Cells transduced with BacMam BRAF V600E were treated with varying concentrations of 18 compounds which include dabrafenib and vemurafenib, which target BRAF, and ulixertinib and MEK162, which target downstream biology. […] The difference in features caused by transducing the cells with BRAF V600E was determined. The effect of compounds on those features was determined within the BRAF V600E-transduced cells and also the effects of compounds on features not related to transduction with BRAF V600E. […] The efficacy of test agents in reversing a disease state can be quantified. This is calculated based on morphological profiling of cells treated with a test agent compared to cells not treated with a test agent.

[2] = system: EGFR-overexpressing cells; experiment: Morphological profiling of BacMam EGFR transduced cells treated with test agents; type: cell-based; details: cosine similarity, treated vs not-treated EGFR overexpressing cells, FIG. 9
Description: as §1

| SMILES | side effect score versus disease score (position relative to the funnel, FIG. 10) [1] | quantified reversal of the disease state (rescue of BRAF V600E overexpression phenotype) [1] | quantification of the reversal of the disease state (modulation of phenotypes of EGFR overexpressing cells) [2] |
| --- | --- | --- | --- |
| Cn1cnc2c(F)c(Nc3ccc(Br)cc3F)c(C(=O)NOCCO)cc21 [MEK162] | Separation from the funnel | some of the top test agents |  |
| CC(C)(C)c1nc(-c2cccc(NS(=O)(=O)c3c(F)cccc3F)c2F)c(-c2ccnc(N)n2)s1 [dabrafenib] | Separation from the funnel | some of the top test agents |  |
| COc1cc2ncnc(Nc3ccc(F)c(Cl)c3)c2cc1NC(=O)/C=C/CN1CCCCC1 [dacomitinib] |  |  | top two test agents |
| CC(C)Nc1cc(-c2c[nH]c(C(=O)N[C@H](CO)c3cccc(Cl)c3)c2)c(Cl)cn1 [ulixertinib] | Separation from the funnel | some of the top test agents |  |

From patent US20220397565A1, “METHODS OF SCREENING AND RELATED SYSTEMS” (RECURSION PHARMACEUTICALS, INC., priority 2021, published 2022)
